# Marks after values point to notes of the source that are not given here.
# Legend:
# MATE 1 = MATE 1 (Homo sapiens, UniProt Q96FL8); experiment: Transporter inhibition; format: in vitro ADME
# P-gp = P-gp (Homo sapiens, UniProt P08183); experiment: Transporter inhibition; format: in vitro ADME; conditions: clinically relevant concentrations
# [1] = Plasma protein binding in human plasma; format: in vitro ADME; conditions: human plasma
# plasma protein = experiment: Plasma protein binding in human plasma; format: in vitro ADME; conditions: range of 0.1 to 10 μM
# CYP2B6 = CYP2B6 (Homo sapiens, UniProt P20813); experiment: In vitro CYP inhibition; format: in vitro ADME; conditions: clinically relevant concentrations
# OCT1 = OCT1 (Homo sapiens, UniProt O15245); experiment: Transporter inhibition; format: in vitro ADME
# BCRP = BCRP (Homo sapiens, UniProt Q9UNQ0); experiment: Transporter substrate; format: in vitro ADME
# [2] = Atogepant-esomeprazole interaction study: safety; format: in vivo, human; conditions: atogepant 60 mg alone or with esomeprazole magnesium 40 mg
# Procedure: A phase 1, open-label, 2-intervention, single-sequence, nonrandomized, crossover, drug-drug interaction study was conducted to evaluate the effects of multiple-dose esomeprazole magnesium 40 mg on pharmacokinetics (PK) and safety of co-administered single-dose atogepant 60 mg in healthy adults.
# OAT3 = OAT3 (Homo sapiens, UniProt Q8TCC7); experiment: Transporter inhibition; format: in vitro ADME; conditions: clinically relevant concentrations
# CYP2C19 = CYP2C19 (Homo sapiens, UniProt P33261); experiment: In vitro CYP inhibition; format: in vitro ADME; conditions: clinically relevant concentrations
# [3] = Atogepant-itraconazole interaction study: safety and tolerability; format: in vivo, human
# Description: The primary objective of this study was to assess the effects of multiple dose itraconazole on the pharmacokinetics of a single dose of atogepant. The primary endpoints were PK parameters of atogepant derived from plasma concentrations. The secondary objectives of the study were to assess the safety and tolerability of atogepant and itraconazole given alone and in combination, and to establish the correlation between concentrations of atogepant in dried blood sample (DBS) (obtained via finger stick) and plasma. The secondary endpoints included AEs, clinical laboratory parameters, vital signs, ECG, and physical examination, and correlation of concentrations of atogepant in DBS and plasma. Subjects who satisfied the inclusion and exclusion criteria were assigned to a single fixed-treatment sequence in which they received Treatment A followed by Treatment B; there was a 7-day washout period between treatments. • Treatment A: Single oral 60 mg dose of atogepant (tablet) under fasted conditions on Day 1 • Treatment B • Days 8-14: Itraconazole 200 mg (tablet) orally once daily under fed conditions. • Day 15: Itraconazole 200 mg coadministered with atogepant 60 mg (tablet) under fasted conditions. • Days 16 to 17: Itraconazole 200 mg (tablet) once daily under fed conditions.
# UGT1A1 = UGT1A1 (Homo sapiens, UniProt P22309); experiment: Enzyme inhibition; format: in vitro ADME; conditions: clinically relevant concentrations
# [4] = Atogepant-topiramate interaction study: safety and tolerability; format: in vivo, human
# OATP1B3 = OATP1B3 (Homo sapiens, UniProt Q9NPD5); experiment: Transporter inhibition; format: in vitro ADME
# CYP2C9 = CYP2C9 (Homo sapiens, UniProt P11712); experiment: In vitro CYP inhibition; format: in vitro ADME; conditions: clinically relevant concentrations
# CYP2D6 = CYP2D6 (Homo sapiens, UniProt P10635); experiment: In vitro CYP inhibition; format: in vitro ADME; conditions: clinically relevant concentrations
# [5] = Safety in 12-week placebo-controlled Studies 1 and 2; format: in vivo, human
# Procedure: The safety of atogepant was evaluated in 1958 patients with migraine who received at least one dose of atogepant. Of these, 839 patients were exposed to atogepant once daily for at least 6 months, and 487 patients were exposed for 12 months. In the 12-week, placebo-controlled clinical studies (Study 1 and Study 2, discussed above in Example 7), 314 patients received at least one dose of atogepant 10 mg once daily, 411 patients received at least one dose of atogepant 30 mg once daily, 417 patients received at least one dose of atogepant 60 mg once daily, and 408 patients received placebo. Approximately 88% were female, 80% were White, 17% were Black, and 12% were of Hispanic or Latino ethnicity. The mean age at study entry was 41 years (range 18 to 74 years).
# OATP1B1 = OATP1B1 (Homo sapiens, UniProt Q9Y6L6); experiment: Transporter substrate; format: in vitro ADME
# CYP3A4 = CYP3A4 (Homo sapiens, UniProt P08684); experiment: In vitro CYP inhibition; format: in vitro ADME; conditions: clinically relevant concentrations
# BSEP = BSEP (Homo sapiens, UniProt O95342); experiment: Transporter inhibition; format: in vitro ADME; conditions: clinically relevant concentrations
# [6] = Studies 1 and 2, atogepant 10 mg (N = 314)
# [7] = Studies 1 and 2, atogepant 30 mg (N = 411)
# [8] = Studies 1 and 2, atogepant 60 mg (N = 417)
# Sequence of OCT1 (O15245 whole entry): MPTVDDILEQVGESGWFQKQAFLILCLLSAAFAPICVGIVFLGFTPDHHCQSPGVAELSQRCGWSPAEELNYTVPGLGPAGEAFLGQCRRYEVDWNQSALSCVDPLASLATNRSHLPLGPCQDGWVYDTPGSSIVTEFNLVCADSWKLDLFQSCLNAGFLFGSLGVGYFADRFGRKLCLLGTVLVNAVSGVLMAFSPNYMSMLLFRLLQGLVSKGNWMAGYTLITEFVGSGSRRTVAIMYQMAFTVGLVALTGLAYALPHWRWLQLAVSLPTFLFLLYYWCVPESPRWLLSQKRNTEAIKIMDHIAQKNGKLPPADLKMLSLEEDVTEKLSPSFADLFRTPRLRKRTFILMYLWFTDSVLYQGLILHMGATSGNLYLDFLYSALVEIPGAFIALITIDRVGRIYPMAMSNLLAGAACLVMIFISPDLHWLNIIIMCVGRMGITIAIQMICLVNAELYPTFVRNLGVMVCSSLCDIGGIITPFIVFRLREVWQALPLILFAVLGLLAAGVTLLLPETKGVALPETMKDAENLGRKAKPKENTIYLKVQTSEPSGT
# Sequence of OAT3 (Q8TCC7 whole entry): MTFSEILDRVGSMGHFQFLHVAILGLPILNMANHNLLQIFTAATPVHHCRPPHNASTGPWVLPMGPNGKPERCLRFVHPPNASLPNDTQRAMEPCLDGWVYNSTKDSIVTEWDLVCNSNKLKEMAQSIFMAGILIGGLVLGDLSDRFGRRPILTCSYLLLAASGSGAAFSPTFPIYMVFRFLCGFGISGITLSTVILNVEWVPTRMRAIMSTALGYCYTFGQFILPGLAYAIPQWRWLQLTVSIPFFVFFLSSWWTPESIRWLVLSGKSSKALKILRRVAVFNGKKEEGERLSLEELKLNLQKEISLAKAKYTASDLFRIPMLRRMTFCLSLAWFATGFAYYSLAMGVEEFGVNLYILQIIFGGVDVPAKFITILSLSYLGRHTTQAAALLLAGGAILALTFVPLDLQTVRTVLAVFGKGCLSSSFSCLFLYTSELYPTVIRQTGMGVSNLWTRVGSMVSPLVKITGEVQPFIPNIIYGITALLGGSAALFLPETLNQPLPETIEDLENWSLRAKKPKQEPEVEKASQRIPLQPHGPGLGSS
# Sequence of P-gp (P08183 whole entry): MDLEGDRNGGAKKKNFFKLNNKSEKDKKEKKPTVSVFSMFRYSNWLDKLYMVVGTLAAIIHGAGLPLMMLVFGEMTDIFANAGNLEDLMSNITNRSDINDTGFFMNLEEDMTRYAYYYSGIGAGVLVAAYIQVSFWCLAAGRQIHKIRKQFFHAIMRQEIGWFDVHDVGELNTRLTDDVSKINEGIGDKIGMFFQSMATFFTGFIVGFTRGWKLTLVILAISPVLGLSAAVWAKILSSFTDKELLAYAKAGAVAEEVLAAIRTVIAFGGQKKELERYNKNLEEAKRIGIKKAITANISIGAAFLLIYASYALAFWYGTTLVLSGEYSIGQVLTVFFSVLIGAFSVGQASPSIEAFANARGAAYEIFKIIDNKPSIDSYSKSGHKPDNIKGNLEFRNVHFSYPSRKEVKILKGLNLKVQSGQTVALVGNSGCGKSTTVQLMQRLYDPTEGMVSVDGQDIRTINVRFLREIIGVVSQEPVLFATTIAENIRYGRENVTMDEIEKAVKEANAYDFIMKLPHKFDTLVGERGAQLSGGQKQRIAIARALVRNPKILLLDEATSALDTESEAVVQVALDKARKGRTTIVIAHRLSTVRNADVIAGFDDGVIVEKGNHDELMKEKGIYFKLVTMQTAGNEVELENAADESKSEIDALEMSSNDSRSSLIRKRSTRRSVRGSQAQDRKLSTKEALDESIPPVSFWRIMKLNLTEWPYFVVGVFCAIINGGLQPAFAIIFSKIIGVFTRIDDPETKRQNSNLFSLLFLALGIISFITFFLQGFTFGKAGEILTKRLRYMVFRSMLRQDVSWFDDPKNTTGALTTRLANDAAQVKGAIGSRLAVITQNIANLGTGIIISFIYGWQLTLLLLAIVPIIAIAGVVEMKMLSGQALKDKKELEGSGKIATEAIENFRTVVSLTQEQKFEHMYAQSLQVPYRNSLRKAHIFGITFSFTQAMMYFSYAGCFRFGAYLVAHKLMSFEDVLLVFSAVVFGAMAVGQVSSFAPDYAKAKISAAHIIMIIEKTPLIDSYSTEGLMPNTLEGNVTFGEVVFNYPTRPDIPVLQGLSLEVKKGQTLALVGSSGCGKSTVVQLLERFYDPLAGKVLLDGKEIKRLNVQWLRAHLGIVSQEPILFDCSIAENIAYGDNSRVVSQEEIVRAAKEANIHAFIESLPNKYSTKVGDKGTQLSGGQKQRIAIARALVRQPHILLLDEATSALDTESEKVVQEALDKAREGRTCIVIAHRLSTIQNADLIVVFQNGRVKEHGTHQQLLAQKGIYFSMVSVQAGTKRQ
# Sequence of OATP1B3 (Q9NPD5 whole entry): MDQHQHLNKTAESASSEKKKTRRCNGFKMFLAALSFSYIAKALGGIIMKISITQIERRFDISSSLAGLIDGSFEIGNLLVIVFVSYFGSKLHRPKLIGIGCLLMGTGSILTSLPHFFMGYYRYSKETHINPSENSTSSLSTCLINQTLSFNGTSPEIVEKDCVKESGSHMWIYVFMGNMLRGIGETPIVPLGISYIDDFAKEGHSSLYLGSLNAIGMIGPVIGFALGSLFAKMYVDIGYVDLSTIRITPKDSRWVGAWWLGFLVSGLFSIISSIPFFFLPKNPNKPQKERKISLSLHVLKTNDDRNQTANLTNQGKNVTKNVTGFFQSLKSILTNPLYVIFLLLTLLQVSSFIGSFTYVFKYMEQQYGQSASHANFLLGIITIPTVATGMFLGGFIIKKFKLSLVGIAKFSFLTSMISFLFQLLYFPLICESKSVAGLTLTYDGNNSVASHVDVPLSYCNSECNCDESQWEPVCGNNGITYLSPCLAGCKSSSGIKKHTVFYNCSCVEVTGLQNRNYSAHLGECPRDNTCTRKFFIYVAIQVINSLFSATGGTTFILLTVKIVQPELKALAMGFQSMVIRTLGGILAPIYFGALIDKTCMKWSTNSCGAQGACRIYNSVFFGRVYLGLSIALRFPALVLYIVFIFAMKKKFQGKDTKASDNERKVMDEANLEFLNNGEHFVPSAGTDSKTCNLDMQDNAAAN
# Sequence of OATP1B1 (Q9Y6L6 whole entry): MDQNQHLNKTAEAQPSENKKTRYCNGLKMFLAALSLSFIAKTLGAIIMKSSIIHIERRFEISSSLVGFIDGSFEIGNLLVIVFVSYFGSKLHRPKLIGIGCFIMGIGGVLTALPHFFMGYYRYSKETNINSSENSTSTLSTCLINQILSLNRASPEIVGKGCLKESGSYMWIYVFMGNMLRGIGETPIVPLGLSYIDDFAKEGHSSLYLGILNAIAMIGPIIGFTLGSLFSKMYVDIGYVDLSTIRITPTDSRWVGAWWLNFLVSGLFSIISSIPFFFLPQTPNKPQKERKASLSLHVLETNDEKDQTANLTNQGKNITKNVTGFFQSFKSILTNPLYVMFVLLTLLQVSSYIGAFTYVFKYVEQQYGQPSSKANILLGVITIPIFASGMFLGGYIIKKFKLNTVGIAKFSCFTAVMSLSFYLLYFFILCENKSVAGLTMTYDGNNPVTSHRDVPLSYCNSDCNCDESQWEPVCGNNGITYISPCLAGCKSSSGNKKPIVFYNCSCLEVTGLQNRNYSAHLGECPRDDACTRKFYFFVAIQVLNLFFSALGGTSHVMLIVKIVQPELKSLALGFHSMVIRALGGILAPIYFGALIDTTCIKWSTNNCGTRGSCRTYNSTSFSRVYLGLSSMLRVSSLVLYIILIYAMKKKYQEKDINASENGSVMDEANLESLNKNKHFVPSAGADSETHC
# Sequence of CYP2C19 (P33261 whole entry): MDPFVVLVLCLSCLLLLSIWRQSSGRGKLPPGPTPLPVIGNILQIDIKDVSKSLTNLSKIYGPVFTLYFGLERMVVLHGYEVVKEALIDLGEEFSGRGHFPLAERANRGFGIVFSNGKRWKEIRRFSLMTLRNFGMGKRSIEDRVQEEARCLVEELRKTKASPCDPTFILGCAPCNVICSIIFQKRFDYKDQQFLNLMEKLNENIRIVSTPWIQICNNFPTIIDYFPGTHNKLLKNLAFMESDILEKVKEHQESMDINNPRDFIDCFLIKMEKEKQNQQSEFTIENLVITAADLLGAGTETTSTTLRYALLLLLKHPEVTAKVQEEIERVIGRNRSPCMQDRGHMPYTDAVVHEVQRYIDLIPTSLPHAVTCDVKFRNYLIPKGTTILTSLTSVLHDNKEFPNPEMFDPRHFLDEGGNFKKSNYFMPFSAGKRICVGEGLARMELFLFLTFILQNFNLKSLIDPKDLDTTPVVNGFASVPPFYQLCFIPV
# Sequence of CYP2B6 (P20813 whole entry): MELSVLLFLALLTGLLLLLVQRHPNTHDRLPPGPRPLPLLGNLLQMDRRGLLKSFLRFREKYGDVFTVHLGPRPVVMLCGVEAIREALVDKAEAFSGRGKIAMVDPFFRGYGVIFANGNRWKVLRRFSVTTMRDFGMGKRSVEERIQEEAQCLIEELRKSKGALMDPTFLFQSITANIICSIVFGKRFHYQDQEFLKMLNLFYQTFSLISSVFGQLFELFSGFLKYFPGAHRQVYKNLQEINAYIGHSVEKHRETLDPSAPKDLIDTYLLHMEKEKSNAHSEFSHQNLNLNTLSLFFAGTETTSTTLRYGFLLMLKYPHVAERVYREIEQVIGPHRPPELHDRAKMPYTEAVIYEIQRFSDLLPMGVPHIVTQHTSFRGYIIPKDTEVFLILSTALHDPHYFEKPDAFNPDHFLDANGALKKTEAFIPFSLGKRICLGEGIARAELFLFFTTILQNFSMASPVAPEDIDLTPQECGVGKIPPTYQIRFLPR
structure (smiles),measurement,setting,value
"C[C@@H]1[C@H](c2c(F)ccc(F)c2F)C[C@H](NC(=O)c2cnc3c(c2)C[C@@]2(C3)C(=O)Nc3ncccc32)C(=O)N1CC(F)(F)F [atogepant, (3′S)-N-[(3S,5S,6R)-6-methyl-2-oxo-1-(2,2,2-trifluoroethyl)-5-(2,3,6-trifluorophenyl)piperidin-3-yl]-2′-oxo-1′,2′,5,7-tetrahydrospiro[cyclopenta[b]pyridine-6,3′-pyrrolo[2,3-b]pyridine]-3-carboxamide]",inhibition of MATE 1,MATE 1,weak inhibitor
same,inhibition of P-gp,P-gp,not an inhibitor
same,fraction unbound,[1],~0.047
same,concentration dependence of plasma protein binding,plasma protein,not concentration-dependent
same,inhibition of CYP2B6,CYP2B6,not an inhibitor
same,inhibition of OCT1,OCT1,weak inhibitor
same,substrate of BCRP,BCRP,substrate
same,safety and tolerability,[2],safe and tolerated
same,inhibition of OAT3,OAT3,not an inhibitor
same,inhibition of CYP2C19,CYP2C19,not an inhibitor
same,subjects experiencing dizziness (TEAE),[3]; atogepant alone,2 subjects
same,tolerability,"[3]; each treatment (atogepant alone, itraconazole, combination)",well-tolerated
same,inhibition of UGT1A1,UGT1A1,does not inhibit
same,"Deaths, %","[4]; cohort 1, atogepant + topiramate (n = 26)",(0) %
same,"Deaths, %","[4]; cohort 1, atogepant alone (n = 28)",(0) %
same,"TEAEs leading to discontinuation, %","[4]; human, in vivo",(17.9)^a %
same,"TESAEs, %","[4]; human, in vivo",(0) %
same,"Treatment-related TEAEs, %","[4]; human, in vivo",(39.3) %
same,"Treatment-related TESAEs, %","[4]; human, in vivo",(0) %
same,constipation reported,"[4]; human, in vivo",3 participants
same,nausea reported,"[4]; human, in vivo",6 participants
same,"TEAEs, %","[4]; human, in vivo, 7 days",(71.4) %
same,inhibition of OATP1B3,OATP1B3,weak inhibitor
same,inhibition of CYP2C9,CYP2C9,not an inhibitor
same,inhibition of CYP2D6,CYP2D6,not an inhibitor
same,discontinuation due to constipation,[5]; Studies 1 and 2,0.5%
same,discontinuation due to fatigue/somnolence,[5]; Studies 1 and 2,0.5%
same,discontinuation due to nausea,[5]; Studies 1 and 2,0.5%
same,proportion of patients with a weight decrease of at least 7% at any point,"[5]; Studies 1 and 2, atogepant 10 mg",3.8%
same,"Constipation, incidence",[5]; [6],6%
same,"Decreased Appetite, incidence",[5]; [6],2%
same,"Fatigue/Somnolence, incidence",[5]; [6],4%
same,"Nausea, incidence",[5]; [6],5%
same,proportion of patients with a weight decrease of at least 7% at any point,"[5]; Studies 1 and 2, atogepant 30 mg",3.2%
same,"Constipation, incidence",[5]; [7],6%
same,"Decreased Appetite, incidence",[5]; [7],1%
same,"Fatigue/Somnolence, incidence",[5]; [7],4%
same,"Nausea, incidence",[5]; [7],6%
same,proportion of patients with a weight decrease of at least 7% at any point,"[5]; Studies 1 and 2, atogepant 60 mg",4.9%
same,"Constipation, incidence",[5]; [8],6%
same,"Decreased Appetite, incidence",[5]; [8],2%
same,"Fatigue/Somnolence, incidence",[5]; [8],6%
same,"Nausea, incidence",[5]; [8],9%
same,severe liver injury or jaundice,[5]; Study 1 and Study 2,no cases
same,rate of transaminase elevations over 3 times the upper limit of normal,"[5]; Study 1 and Study 2, patients treated with atogepant",1.0%
same,time to resolution of transaminase elevations after discontinuation,"[5]; cases temporally associated with atogepant treatment, asymptomatic",≤ 8 weeks
same,substrate of OATP1B1,OATP1B1,substrate
same,inhibition of CYP3A4,CYP3A4,not an inhibitor
same,inhibition of BSEP,BSEP,not an inhibitor

# Source: patent US12350259B2, “Methods of treating migraine” (Allergan Pharmaceuticals International Limited, priority 2021, dated 2025)
